This is an account of results in the NIST ThermoML archive (doi:10.1016/j.tca.2009.06.012).

The conditions of data set [1]: Crystal.
The nature of data set [2]: Molar enthalpy of transition or fusion. The following applies: Crystal; DSC.

The structures appear in SMILES notation. ± gives the expanded uncertainty stated by the source.

As for `Brc1ccc(-c2ccc(Br)cc2)cc1` [4,4'-dibromo-1,1'-biphenyl], in data set [1] (visual observation), the Normal melting temperature is 167.50 ± 0.5 °C. Also, the “Molar enthalpy of transition or fusion” value in data set [2] stood at 6.78 ± 0.203 kcal/mol.
`N#CCCC#N` [butanedinitrile]: the Normal melting temperature in data set [1] (DTA) turned out to be 56.50 ± 0.5 °C. Moreover, the “Molar enthalpy of transition or fusion” value in data set [2] amounted to 0.884 ± 0.0765 kcal/mol.
